The first series concerns the target T1, recombinant human IP6K2 (Homo sapiens, UniProt Q9UHH9).
T1 construct: made in house; host or cells: Sf9 insect cells (baculovirus, pFASTBAC1)
T1 sequence (Q9UHH9 1-426): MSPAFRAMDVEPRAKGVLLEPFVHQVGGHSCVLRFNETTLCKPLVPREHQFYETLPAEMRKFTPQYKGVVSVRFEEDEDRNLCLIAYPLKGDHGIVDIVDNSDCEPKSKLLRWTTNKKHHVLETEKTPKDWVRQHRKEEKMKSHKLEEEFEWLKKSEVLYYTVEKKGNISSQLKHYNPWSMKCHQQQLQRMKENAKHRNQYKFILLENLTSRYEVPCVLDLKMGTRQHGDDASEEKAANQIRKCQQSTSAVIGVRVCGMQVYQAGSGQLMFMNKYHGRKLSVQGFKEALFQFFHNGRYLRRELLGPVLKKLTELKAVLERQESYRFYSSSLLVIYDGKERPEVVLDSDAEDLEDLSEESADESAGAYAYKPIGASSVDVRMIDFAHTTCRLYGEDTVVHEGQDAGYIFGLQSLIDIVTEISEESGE
Kind of series: ADP-Glo kinase assay, IP6K2. It is filed as biochemical. Particulars: IC50 compared with quercetin. As to the method: Inhibition activity of the synthesised compounds against IP6K2 was assessed using ADP-Glo™ Kinase Assay (Promega). Kinase reaction mixtures were first shaking-incubated with individual drugs (diluted in DMSO) for pre-incubation at RT for 15 min, and then ATP was added (final 10 µM) to initiate the reaction. 20 ng of recombinant human IP6K2 protein was used per 15 µL of IP6K2 reaction mixture (50 mM Tris-HCl, pH 6.8, 10 mM MgCl2, 2.5 mM DTT, 0.02% Triton X-100, 10 µM IP6). […] Each detection set was prepared on 96-well (25 µL kinase reaction) as duplicates. Resulting enzyme activity was calculated as following; Activity (%) = ([ADPexperimental]/[ADPDMSO])×100. For IC50 estimation of compounds, kinase assay was prepared on 384-well plates (20 ng of recombinant human IP6K2 protein was used per 5 µL kinase reaction mixture) as duplicates. The final concentrations for IP6K2, IP6, and ATP were 80 nM, 10 μM, and 10 μM, respectively. […] IP6K1 and IP6K3 assays were performed by Liao et al.’s conditions.[25] The final concentrations for IP6K1, IP6, and ATP were 60 nM, 100 μM, and 1 mM, respectively. […] All statistical analyses including IC50 estimation was performed using Prism 7 or Prism 9 (Graphpad Software).
Full-length human IP6K1, IP6K2, or IP6K3 cDNA was subcloned into pFASTBAC1 plasmid (Gibco) with an N-terminal FLAG epitope sequence, and baculovirus was generated according to the manufacturer’s instructions. Sf9 insect cells were infected with baculovirus and incubated for 72 h. The cells were resuspended in lysis buffer [20 mM Tris–HCl (pH 7.9), 500 mM NaCl, 4 mM MgCl2, 0.4 mM EDTA, 2 mM DTT, 20% glycerol, 1 mM PMSF, and protease inhibitor cocktail (Roche)] and then disrupted with a Dounce homogeniser (pestle A, 3 series of 10 strokes with 10 min interval).
Background: In ADP-Glo the light output rises with the ADP produced.
For `Cn1cc(-c2oc3cc(O)c(O)cc3c(=O)c2O)cn1` [Compound 23b, 3,6,7-Trihydroxy-2–(1-methyl-1H-pyrazol-4-yl)-4H-chromen-4-one], the “fold more potent IP6K2 inhibition than quercetin” value is given as 2 fold.

Staying with this series, now noted: IC50 experiment up to 100 µM.
For `Cc1ccc(-c2oc3cc(O)c(O)cc3c(=O)c2O)cc1C` [Compound 20e, 2–(3,4-Dimethylphenyl)-3,6,7-trihydroxy-4H-chromen-4-one], the “inhibitory activity against IP6K2 (in words)” value was “completely lost their inhibitory activity against IP6K2”. Same read-out and setting: in the case of `O=c1c(O)c(-c2ccc(F)c(F)c2)oc2cc(O)c(O)cc12` [Compound 20h, 2–(3,4-Difluorophenyl)-3,6,7-trihydroxy-4H-chromen-4-one] it was “completely lost their inhibitory activity against IP6K2”.

The series is the same for the next values; noted with them: Table 1; IP6K2 80 nM, IP6 10 μM, ATP 10 μM; read-out: IP6K2 IC50.
With `O=C(O)c1cccc(-c2cc(=O)c3cc(O)c(O)cc3o2)c1` [Compound 16b, 3–(6,7-Dihydroxy-4-oxo-4H-chromen-2-yl)benzoic acid], the IC50 is 1.67 µM. On the same count and under the same terms, to `O=C(O)c1ccc(-c2cc(=O)c3c(O)cc(O)cc3o2)cc1` [Compound 16c, 4–(5,7-Dihydroxy-4-oxo-4H-chromen-2-yl)benzoic acid] belongs 41.9 µM. `O=C(O)c1ccc(-c2cc(=O)c3cc(O)c(O)cc3o2)cc1` [Compound 16a, 4–(6,7-Dihydroxy-4-oxo-4H-chromen-2-yl)benzoic acid]: the IC50 came out at 9.07 µM. On the same count and under the same terms, to `O=C(O)c1cccc(-c2cc(=O)c3c(O)cc(O)cc3o2)c1` [Compound 16d, 3–(5,7-Dihydroxy-4-oxo-4H-chromen-2-yl)benzoic acid] belongs 2.89 µM.

The same series, now with this note: Table 2; duplicates, 0.017 to 100 µM, mean ± SD; IP6K2 80 nM, IP6 10 μM, ATP 10 μM; read-out: IP6K2 IC50.
In the case of `O=c1c(O)c(-c2ccc(O)cc2)oc2cc(O)c(O)cc12` [Compound 20p, 3,6,7-Trihydroxy-2–(4-hydroxyphenyl)-4H-chromen-4-one], the IC50 amounted to 22.6 ± 0.3 µM.

Take `O=c1c(O)c(-c2cccc(Cl)c2)oc2cc(O)c(O)cc12` [Compound 20l, 2–(3-Chlorophenyl)-3,6,7-trihydroxy-4H-chromen-4-one]: the IC50 was determined as 73.2 ± 3.2 µM. Still for that read-out and setting: to `O=c1c(O)c(-c2cccc(O)c2)oc2cc(O)c(O)cc12` [Compound 20q, 3,6,7-Trihydroxy-2–(3-hydroxyphenyl)-4H-chromen-4-one] belongs 2.96 ± 0.19 µM. On the same count and under the same terms, to `Cn1cc(-c2oc3cc(O)c(O)cc3c(=O)c2O)cn1` [Compound 23b, 3,6,7-Trihydroxy-2–(1-methyl-1H-pyrazol-4-yl)-4H-chromen-4-one] belongs 1.79 ± 0.4 µM.

In the case of `O=c1c(O)c(-c2ccc(Cl)cc2)oc2cc(O)c(O)cc12` [Compound 20k, 2–(4-Chlorophenyl)-3,6,7-trihydroxy-4H-chromen-4-one], the IC50 worked out at 81.5 ± 3.3 µM. Same read-out and setting: to `O=c1c(O)c(-c2ccc(C(F)(F)F)cc2)oc2cc(O)c(O)cc12` [Compound 20i, 3,6,7-Trihydroxy-2–(4-(trifluoromethyl)phenyl)-4H-chromen-4-one] belongs more than 100 µM; to `O=c1c(O)c(-c2ccc(O)c(O)c2)oc2cc(O)c(O)cc12` [Compound 20a, 2–(3,4-Dihydroxyphenyl)-3,6,7-trihydroxy-4H-chromen-4-one], 1.77 ± 0.15 µM. For the compound `O=c1c(O)c(-c2ccccc2)oc2cc(O)c(O)cc12` [Compound 20b, 3,6,7-Trihydroxy-2-phenyl-4H-chromen-4-one], the IC50 came to 14.5 ± 0.9 µM. On to `O=c1c(O)c(-c2ccc(F)cc2)oc2cc(O)c(O)cc12` [Compound 20f, 2–(4-Fluorophenyl)-3,6,7-trihydroxy-4H-chromen-4-one], for which the IC50 worked out at 61.9 ± 3.8 µM.

Consider `O=C(O)c1ccc(-c2oc3cc(O)c(O)cc3c(=O)c2O)cc1` [Compound 20r, 4–(3,6,7-Trihydroxy-4-oxo-4H-chromen-2-yl)benzoic acid], for which the IC50 is 3.93 ± 0.03 µM. Still for that read-out and setting: to `O=c1c(O)c(-c2cccc(C(F)(F)F)c2)oc2cc(O)c(O)cc12` [Compound 20j, 3,6,7-Trihydroxy-2–(3-(trifluoromethyl)phenyl)-4H-chromen-4-one] belongs more than 100 µM. Same read-out and setting: to `Cc1ccc(-c2oc3cc(O)c(O)cc3c(=O)c2O)cc1` [Compound 20c, 3,6,7-Trihydroxy-2-(p-tolyl)-4H-chromen-4-one] belongs more than 100 µM; to `O=c1c(O)c(-c2cccs2)oc2cc(O)c(O)cc12` [Compound 23c, 3,6,7-Trihydroxy-2-(thiophen-2-yl)-4H-chromen-4-one], 73.3 ± 12.8 µM; to `Cc1ccc(-c2oc3cc(O)c(O)cc3c(=O)c2O)cc1C` [Compound 20e, 2–(3,4-Dimethylphenyl)-3,6,7-trihydroxy-4H-chromen-4-one], more than 100 µM. The same measure, in the same setting: in the case of `O=c1c(O)c(-c2ccc(-c3ccccc3)cc2)oc2cc(O)c(O)cc12` [Compound 20m, 2-([1,1'-Biphenyl]-4-yl)-3,6,7-trihydroxy-4H-chromen-4-one] it was more than 100 µM. Take `O=c1c(O)c(-c2ccc(Oc3ccccc3)cc2)oc2cc(O)c(O)cc12` [Compound 20n, 3,6,7-Trihydroxy-2–(4-phenoxyphenyl)-4H-chromen-4-one]: the IC50 is more than 100 µM. Take `O=c1c(O)c(-c2ccc3ccccc3c2)oc2cc(O)c(O)cc12` [Compound 23a, 3,6,7-Trihydroxy-2-(naphthalen-2-yl)-4H-chromen-4-one]: the IC50 turned out to be 97.8 ± 1.7 µM. Still for that read-out and setting: to `O=c1c(O)c(-c2cccc(F)c2)oc2cc(O)c(O)cc12` [Compound 20g, 2–(3-Fluorophenyl)-3,6,7-trihydroxy-4H-chromen-4-one] belongs 38.7 ± 2.9 µM. Still for that read-out and setting: in the case of `O=c1c(O)c(-c2cccc(Oc3ccccc3)c2)oc2cc(O)c(O)cc12` [Compound 20o, 3,6,7-Trihydroxy-2–(3-phenoxyphenyl)-4H-chromen-4-one] it was 73.3 ± 12.7 µM; in that of `O=c1c(O)c(-c2ccc(F)c(F)c2)oc2cc(O)c(O)cc12` [Compound 20h, 2–(3,4-Difluorophenyl)-3,6,7-trihydroxy-4H-chromen-4-one], more than 100 µM. Consider `Cc1cccc(-c2oc3cc(O)c(O)cc3c(=O)c2O)c1` [Compound 20d, 3,6,7-Trihydroxy-2-(m-tolyl)-4H-chromen-4-one], for which the IC50 was determined as 38.8 ± 3.8 µM.

Staying with this series, now noted: at concentrations of 10 and 50 µM, result in words.
With `O=c1cc(-c2cccnc2)oc2cc(O)c(O)cc12` [Compound 2e], the “IP6K2-inhibitory activity in screening” value is given as “inhibit IP6K2 more strongly than the corresponding compounds”. The same measure, in the same setting: to `O=c1cc(-c2ccccc2)oc2cc(O)c(O)cc12` [Compound 2a] belongs “inhibit IP6K2 more strongly than the corresponding compounds”; to `O=c1cc(-c2ccc(O)cc2)oc2cc(O)c(O)cc12` [Compound 2c], “inhibit IP6K2 more strongly than the corresponding compounds”.

Test system in the next series: not given
Assay: not given
Details: not given
Turning to `O=c1cc(-c2ccc(O)cc2)oc2cc(F)c(F)cc12`, the melting point lay within 302 to 304 °C. The same measure, in the same setting: in the case of `COc1ccc(-c2cc(=O)c3c(F)cccc3o2)cc1` it was 178 to 180 °C.

`O=C(O)c1cccc(-c2cc(=O)c3cc(O)c(O)cc3o2)c1` [Compound 16b, 3–(6,7-Dihydroxy-4-oxo-4H-chromen-2-yl)benzoic acid] returned a melting point of 416 to 418 °C. On the same count and under the same terms, in the case of `O=C(O)c1ccc(-c2cc(=O)c3c(O)cc(O)cc3o2)cc1` [Compound 16c, 4–(5,7-Dihydroxy-4-oxo-4H-chromen-2-yl)benzoic acid] it was 337 to 339 °C; in that of `O=c1cc(-c2ccc(O)cc2)oc2cc(F)cc(F)c12`, 228 to 230 °C.

As for `O=c1cc(-c2ccccc2)oc2cccc(F)c12`, the melting point fell in the range of 144 to 146 °C.

`O=C(O)c1cccc(-c2cc(=O)c3cc(F)c(F)cc3o2)c1`: the melting point was in the range of 272 to 274 °C. `O=c1cc(-c2ccc(O)cc2)oc2cc(F)ccc12` showed a melting point of 310 to 312 °C. On the same count and under the same terms, in the case of `COc1ccc(-c2cc(=O)c3cc(F)c(F)cc3o2)cc1` it was 200 to 202 °C. Same read-out and setting: to `COc1ccc(-c2cc(=O)c3cc(F)ccc3o2)cc1` belongs 160 to 162 °C; to `O=c1cc(-c2ccccc2)oc2cc(F)ccc12`, 96 to 98 °C; to `O=c1cc(-c2ccc(O)cc2)oc2ccc(F)cc12`, 292 to 294 °C.

In the case of `COc1ccc(-c2cc(=O)c3ccc(F)cc3o2)cc1`, the melting point fell in the range of 228 to 230 °C.

In the case of `O=c1cc(-c2ccc(O)cc2)oc2cccc(F)c12`, the melting point was in the range of 272 to 274 °C.

The compound `COc1ccc(-c2cc(=O)c3c(F)cc(F)cc3o2)cc1` registered a melting point of 256 to 258 °C.

What is called IC50 is the point on the concentration scale where inhibition reaches its midpoint. A word on the melting point: it is the temperature of the solid-liquid transition.

Values taken from article PMC10075506, “Synthesis and biological evaluation of flavonoid-based IP6K2 inhibitors” (Journal of Enzyme Inhibition and Medicinal Chemistry, 2023).
